Test: The drug is tested on Collinsella intestinalis strain: DSM13280 for biotransformation. The drug concentrations were measured before and after a 12-h incubation by liquid-chromatography-coupled mass spectrometry (LC–MS)
Conditions: 2 µM

Row | Structure (SMILES) | Bacterial Biotransformation
1 | CC(C)(C(=O)O)c1ccc(C(O)CCCN2CCC(C(O)(c3ccccc3)c3ccccc3)CC2)cc1 (stereo not drawn) [FEXOFENADINE] | Compound NOT metabolized
2 | Nc1nnc(-c2cccc(Cl)c2Cl)c(N)n1 [LAMOTRIGINE] | Compound NOT metabolized
3 | CN1CCc2c(c3ccccc3n2Cc2ccccc2)C1.CN1CCc2c(c3ccccc3n2Cc2ccccc2)C1.O=S(=O)(O)c1cccc2c(S(=O)(=O)O)cccc12 | Compound NOT metabolized
4 | CN(C)C(=O)Oc1cccc([N+](C)(C)C)c1.[Br-] [NEOSTIGMINE BROMIDE] | Compound NOT metabolized

Test: The drug is tested on Parabacteroides merdae strain: ATCC43184 for biotransformation. The drug concentrations were measured before and after a 12-h incubation by liquid-chromatography-coupled mass spectrometry (LC–MS)
Conditions: 2 µM

Row | Structure (SMILES) | Bacterial Biotransformation
5 | CC(C)(C(=O)O)c1ccc(C(O)CCCN2CCC(C(O)(c3ccccc3)c3ccccc3)CC2)cc1 (stereo not drawn) [FEXOFENADINE] | Compound NOT metabolized
6 | CN1CCc2c(c3ccccc3n2Cc2ccccc2)C1.CN1CCc2c(c3ccccc3n2Cc2ccccc2)C1.O=S(=O)(O)c1cccc2c(S(=O)(=O)O)cccc12 | Compound NOT metabolized
7 | CN(C)C(=O)Oc1cccc([N+](C)(C)C)c1.[Br-] [NEOSTIGMINE BROMIDE] | Compound metabolized

Test: The drug is tested on Bacteroides pectinophilus strain: ATCC43243 for biotransformation. The drug concentrations were measured before and after a 12-h incubation by liquid-chromatography-coupled mass spectrometry (LC–MS)
Conditions: 2 µM

Row | Structure (SMILES) | Bacterial Biotransformation
8 | CC(C)(C(=O)O)c1ccc(C(O)CCCN2CCC(C(O)(c3ccccc3)c3ccccc3)CC2)cc1 (stereo not drawn) [FEXOFENADINE] | Compound NOT metabolized
9 | Nc1nnc(-c2cccc(Cl)c2Cl)c(N)n1 [LAMOTRIGINE] | Compound NOT metabolized
10 | CN1CCc2c(c3ccccc3n2Cc2ccccc2)C1.CN1CCc2c(c3ccccc3n2Cc2ccccc2)C1.O=S(=O)(O)c1cccc2c(S(=O)(=O)O)cccc12 | Compound NOT metabolized
11 | CN(C)C(=O)Oc1cccc([N+](C)(C)C)c1.[Br-] [NEOSTIGMINE BROMIDE] | Compound NOT metabolized

Test: The drug is tested on Enterobacter cancerogenus strain: ATCC35316 for biotransformation. The drug concentrations were measured before and after a 12-h incubation by liquid-chromatography-coupled mass spectrometry (LC–MS)
Conditions: 2 µM

Row | Structure (SMILES) | Bacterial Biotransformation
12 | Nc1nnc(-c2cccc(Cl)c2Cl)c(N)n1 [LAMOTRIGINE] | Compound NOT metabolized

Test: The drug is tested on Alistipes indistinctus strain: DSM22520 for biotransformation. The drug concentrations were measured before and after a 12-h incubation by liquid-chromatography-coupled mass spectrometry (LC–MS)
Conditions: 2 µM

Row | Structure (SMILES) | Bacterial Biotransformation
13 | CC(C)(C(=O)O)c1ccc(C(O)CCCN2CCC(C(O)(c3ccccc3)c3ccccc3)CC2)cc1 (stereo not drawn) [FEXOFENADINE] | Compound NOT metabolized
14 | CN(C)C(=O)Oc1cccc([N+](C)(C)C)c1.[Br-] [NEOSTIGMINE BROMIDE] | Compound NOT metabolized

Test: The drug is tested on Edwardsiella tarda strain: ATCC23685 for biotransformation. The drug concentrations were measured before and after a 12-h incubation by liquid-chromatography-coupled mass spectrometry (LC–MS)
Conditions: 2 µM

Row | Structure (SMILES) | Bacterial Biotransformation
15 | CC(C)(C(=O)O)c1ccc(C(O)CCCN2CCC(C(O)(c3ccccc3)c3ccccc3)CC2)cc1 (stereo not drawn) [FEXOFENADINE] | Compound NOT metabolized
16 | Nc1nnc(-c2cccc(Cl)c2Cl)c(N)n1 [LAMOTRIGINE] | Compound NOT metabolized
17 | CN1CCc2c(c3ccccc3n2Cc2ccccc2)C1.CN1CCc2c(c3ccccc3n2Cc2ccccc2)C1.O=S(=O)(O)c1cccc2c(S(=O)(=O)O)cccc12 | Compound NOT metabolized
18 | CN(C)C(=O)Oc1cccc([N+](C)(C)C)c1.[Br-] [NEOSTIGMINE BROMIDE] | Compound NOT metabolized

Test: The drug is tested on Dorea formicigenerans strain: ATCC27755 for biotransformation. The drug concentrations were measured before and after a 12-h incubation by liquid-chromatography-coupled mass spectrometry (LC–MS)
Conditions: 2 µM

Row | Structure (SMILES) | Bacterial Biotransformation
19 | CC(C)(C(=O)O)c1ccc(C(O)CCCN2CCC(C(O)(c3ccccc3)c3ccccc3)CC2)cc1 (stereo not drawn) [FEXOFENADINE] | Compound NOT metabolized
20 | Nc1nnc(-c2cccc(Cl)c2Cl)c(N)n1 [LAMOTRIGINE] | Compound NOT metabolized
21 | CN1CCc2c(c3ccccc3n2Cc2ccccc2)C1.CN1CCc2c(c3ccccc3n2Cc2ccccc2)C1.O=S(=O)(O)c1cccc2c(S(=O)(=O)O)cccc12 | Compound NOT metabolized
22 | CN(C)C(=O)Oc1cccc([N+](C)(C)C)c1.[Br-] [NEOSTIGMINE BROMIDE] | Compound NOT metabolized

Test: The drug is tested on Clostridium symbiosum strain: ATCC14940 for biotransformation. The drug concentrations were measured before and after a 12-h incubation by liquid-chromatography-coupled mass spectrometry (LC–MS)
Conditions: 2 µM

Row | Structure (SMILES) | Bacterial Biotransformation
23 | CC(C)(C(=O)O)c1ccc(C(O)CCCN2CCC(C(O)(c3ccccc3)c3ccccc3)CC2)cc1 (stereo not drawn) [FEXOFENADINE] | Compound NOT metabolized
24 | Nc1nnc(-c2cccc(Cl)c2Cl)c(N)n1 [LAMOTRIGINE] | Compound NOT metabolized
25 | CN1CCc2c(c3ccccc3n2Cc2ccccc2)C1.CN1CCc2c(c3ccccc3n2Cc2ccccc2)C1.O=S(=O)(O)c1cccc2c(S(=O)(=O)O)cccc12 | Compound NOT metabolized
26 | CN(C)C(=O)Oc1cccc([N+](C)(C)C)c1.[Br-] [NEOSTIGMINE BROMIDE] | Compound NOT metabolized

Test: The drug is tested on Ruminococcus torques strain: ATCC27756 for biotransformation. The drug concentrations were measured before and after a 12-h incubation by liquid-chromatography-coupled mass spectrometry (LC–MS)
Type: ADME
Parameters: dose 2 uM, timepoint 0 vs 12 hours
Conditions: 2 µM

Row | Structure (SMILES) | Bacterial Biotransformation
27 | CC(C)(C(=O)O)c1ccc(C(O)CCCN2CCC(C(O)(c3ccccc3)c3ccccc3)CC2)cc1 (stereo not drawn) [FEXOFENADINE] | Compound NOT metabolized
28 | Nc1nnc(-c2cccc(Cl)c2Cl)c(N)n1 [LAMOTRIGINE] | Compound NOT metabolized
29 | CN1CCc2c(c3ccccc3n2Cc2ccccc2)C1.CN1CCc2c(c3ccccc3n2Cc2ccccc2)C1.O=S(=O)(O)c1cccc2c(S(=O)(=O)O)cccc12 | Compound NOT metabolized
30 | CN(C)C(=O)Oc1cccc([N+](C)(C)C)c1.[Br-] [NEOSTIGMINE BROMIDE] | Compound NOT metabolized

Test: The drug is tested on Bacteroides ovatus strain: ATCC8483 for biotransformation. The drug concentrations were measured before and after a 12-h incubation by liquid-chromatography-coupled mass spectrometry (LC–MS)
Conditions: 2 µM

Row | Structure (SMILES) | Bacterial Biotransformation
31 | CC(C)(C(=O)O)c1ccc(C(O)CCCN2CCC(C(O)(c3ccccc3)c3ccccc3)CC2)cc1 (stereo not drawn) [FEXOFENADINE] | Compound NOT metabolized
32 | Nc1nnc(-c2cccc(Cl)c2Cl)c(N)n1 [LAMOTRIGINE] | Compound NOT metabolized
33 | CN1CCc2c(c3ccccc3n2Cc2ccccc2)C1.CN1CCc2c(c3ccccc3n2Cc2ccccc2)C1.O=S(=O)(O)c1cccc2c(S(=O)(=O)O)cccc12 | Compound NOT metabolized
34 | CN(C)C(=O)Oc1cccc([N+](C)(C)C)c1.[Br-] [NEOSTIGMINE BROMIDE] | Compound metabolized

Conditions: bacteroides stercoris, 12 h, 2 µM
Description: The drug is tested on Bacteroides stercoris strain: ATCC43183 for biotransformation. The drug concentrations were measured before and after a 12-h incubation by liquid-chromatography-coupled mass spectrometry (LC–MS)

Row | Structure (SMILES) | Bacterial Biotransformation
35 | CC(C)(C(=O)O)c1ccc(C(O)CCCN2CCC(C(O)(c3ccccc3)c3ccccc3)CC2)cc1 (stereo not drawn) [FEXOFENADINE] | Compound NOT metabolized
36 | Nc1nnc(-c2cccc(Cl)c2Cl)c(N)n1 [LAMOTRIGINE] | Compound NOT metabolized
37 | CN1CCc2c(c3ccccc3n2Cc2ccccc2)C1.CN1CCc2c(c3ccccc3n2Cc2ccccc2)C1.O=S(=O)(O)c1cccc2c(S(=O)(=O)O)cccc12 | Compound NOT metabolized
38 | CN(C)C(=O)Oc1cccc([N+](C)(C)C)c1.[Br-] [NEOSTIGMINE BROMIDE] | Compound NOT metabolized

Test: The drug is tested on Bacteroides coprophilus strain: DSM18228 for biotransformation. The drug concentrations were measured before and after a 12-h incubation by liquid-chromatography-coupled mass spectrometry (LC–MS)
Conditions: 2 µM

Row | Structure (SMILES) | Bacterial Biotransformation
39 | CC(C)(C(=O)O)c1ccc(C(O)CCCN2CCC(C(O)(c3ccccc3)c3ccccc3)CC2)cc1 (stereo not drawn) [FEXOFENADINE] | Compound NOT metabolized
40 | Nc1nnc(-c2cccc(Cl)c2Cl)c(N)n1 [LAMOTRIGINE] | Compound NOT metabolized
41 | CN1CCc2c(c3ccccc3n2Cc2ccccc2)C1.CN1CCc2c(c3ccccc3n2Cc2ccccc2)C1.O=S(=O)(O)c1cccc2c(S(=O)(=O)O)cccc12 | Compound NOT metabolized
42 | CN(C)C(=O)Oc1cccc([N+](C)(C)C)c1.[Br-] [NEOSTIGMINE BROMIDE] | Compound metabolized

Test: The drug is tested on Coprococcus comes strain: ATCC27758 for biotransformation. The drug concentrations were measured before and after a 12-h incubation by liquid-chromatography-coupled mass spectrometry (LC–MS)
Type: ADME
Parameters: dose 2 uM, timepoint 0 vs 12 hours
Conditions: 2 µM

Row | Structure (SMILES) | Bacterial Biotransformation
43 | Nc1nnc(-c2cccc(Cl)c2Cl)c(N)n1 [LAMOTRIGINE] | Compound NOT metabolized
44 | CN1CCc2c(c3ccccc3n2Cc2ccccc2)C1.CN1CCc2c(c3ccccc3n2Cc2ccccc2)C1.O=S(=O)(O)c1cccc2c(S(=O)(=O)O)cccc12 | Compound NOT metabolized
45 | CN(C)C(=O)Oc1cccc([N+](C)(C)C)c1.[Br-] [NEOSTIGMINE BROMIDE] | Compound NOT metabolized

Test: The drug is tested on Blautia luti strain: DSM14534 for biotransformation. The drug concentrations were measured before and after a 12-h incubation by liquid-chromatography-coupled mass spectrometry (LC–MS)
Type: ADME
Parameters: dose 2 uM, timepoint 0 vs 12 hours
Conditions: 2 µM

Row | Structure (SMILES) | Bacterial Biotransformation
46 | CC(C)(C(=O)O)c1ccc(C(O)CCCN2CCC(C(O)(c3ccccc3)c3ccccc3)CC2)cc1 (stereo not drawn) [FEXOFENADINE] | Compound NOT metabolized
47 | Nc1nnc(-c2cccc(Cl)c2Cl)c(N)n1 [LAMOTRIGINE] | Compound NOT metabolized
48 | CN1CCc2c(c3ccccc3n2Cc2ccccc2)C1.CN1CCc2c(c3ccccc3n2Cc2ccccc2)C1.O=S(=O)(O)c1cccc2c(S(=O)(=O)O)cccc12 | Compound NOT metabolized
49 | CN(C)C(=O)Oc1cccc([N+](C)(C)C)c1.[Br-] [NEOSTIGMINE BROMIDE] | Compound NOT metabolized

Test: The drug is tested on Bacteroides fragilis strain: ATCC43859 for biotransformation. The drug concentrations were measured before and after a 12-h incubation by liquid-chromatography-coupled mass spectrometry (LC–MS)
Conditions: 2 µM

Row | Structure (SMILES) | Bacterial Biotransformation
50 | CC(C)(C(=O)O)c1ccc(C(O)CCCN2CCC(C(O)(c3ccccc3)c3ccccc3)CC2)cc1 (stereo not drawn) [FEXOFENADINE] | Compound NOT metabolized
51 | Nc1nnc(-c2cccc(Cl)c2Cl)c(N)n1 [LAMOTRIGINE] | Compound NOT metabolized
52 | CN1CCc2c(c3ccccc3n2Cc2ccccc2)C1.CN1CCc2c(c3ccccc3n2Cc2ccccc2)C1.O=S(=O)(O)c1cccc2c(S(=O)(=O)O)cccc12 | Compound NOT metabolized

Test: The drug is tested on Bacteroides fragilis strain: HMW610 for biotransformation. The drug concentrations were measured before and after a 12-h incubation by liquid-chromatography-coupled mass spectrometry (LC–MS)
Conditions: 2 µM

Row | Structure (SMILES) | Bacterial Biotransformation
53 | CC(C)(C(=O)O)c1ccc(C(O)CCCN2CCC(C(O)(c3ccccc3)c3ccccc3)CC2)cc1 (stereo not drawn) [FEXOFENADINE] | Compound NOT metabolized
54 | Nc1nnc(-c2cccc(Cl)c2Cl)c(N)n1 [LAMOTRIGINE] | Compound NOT metabolized
55 | CN1CCc2c(c3ccccc3n2Cc2ccccc2)C1.CN1CCc2c(c3ccccc3n2Cc2ccccc2)C1.O=S(=O)(O)c1cccc2c(S(=O)(=O)O)cccc12 | Compound NOT metabolized

Conditions: enterocloster bolteae, 12 h, 2 µM
Description: The drug is tested on Clostridium bolteae strain: ATCCBAA-613 for biotransformation. The drug concentrations were measured before and after a 12-h incubation by liquid-chromatography-coupled mass spectrometry (LC–MS)

Row | Structure (SMILES) | Bacterial Biotransformation
56 | CC(C)(C(=O)O)c1ccc(C(O)CCCN2CCC(C(O)(c3ccccc3)c3ccccc3)CC2)cc1 (stereo not drawn) [FEXOFENADINE] | Compound NOT metabolized
57 | Nc1nnc(-c2cccc(Cl)c2Cl)c(N)n1 [LAMOTRIGINE] | Compound NOT metabolized
58 | CN1CCc2c(c3ccccc3n2Cc2ccccc2)C1.CN1CCc2c(c3ccccc3n2Cc2ccccc2)C1.O=S(=O)(O)c1cccc2c(S(=O)(=O)O)cccc12 | Compound NOT metabolized
59 | CN(C)C(=O)Oc1cccc([N+](C)(C)C)c1.[Br-] [NEOSTIGMINE BROMIDE] | Compound NOT metabolized

Test: The drug is tested on Eubacterium rectale strain: ATCC33656 for biotransformation. The drug concentrations were measured before and after a 12-h incubation by liquid-chromatography-coupled mass spectrometry (LC–MS)
Conditions: agathobacter rectalis, 2 µM

Row | Structure (SMILES) | Bacterial Biotransformation
60 | CC(C)(C(=O)O)c1ccc(C(O)CCCN2CCC(C(O)(c3ccccc3)c3ccccc3)CC2)cc1 (stereo not drawn) [FEXOFENADINE] | Compound NOT metabolized
61 | Nc1nnc(-c2cccc(Cl)c2Cl)c(N)n1 [LAMOTRIGINE] | Compound NOT metabolized
62 | CN1CCc2c(c3ccccc3n2Cc2ccccc2)C1.CN1CCc2c(c3ccccc3n2Cc2ccccc2)C1.O=S(=O)(O)c1cccc2c(S(=O)(=O)O)cccc12 | Compound NOT metabolized
63 | CN(C)C(=O)Oc1cccc([N+](C)(C)C)c1.[Br-] [NEOSTIGMINE BROMIDE] | Compound NOT metabolized

Reference: ChEMBL document CHEMBL5303573, “Mapping human microbiome drug metabolism by gut bacteria and their genes” (Nature, 2019)
